Measured values: article PMC7177456, “A Peptidomimetic Fluorescent Probe to Detect the Trypsin β2 Subunit of the Human 20S Proteasome” (International Journal of Molecular Sciences, 2020)

Tests used:
20S proteasome [1] = assay: Library deconvolution, cleavage rates of sublibraries and individual compounds; type: biochemical, human; conditions: P4 Dap(O2(Cbz)), P3 Dap(GO1); 3.4 × 10^−6 M; 20S proteasome 1.46 × 10^−9 M; pH 8.2, 37 °C
Procedure: Deconvolution of the synthesized library with a fixed Arg in position P1 and diversified by DAPEG residues at positions P2–P4 was performed in a solution using a mix and split approach. […] Since the proteasome structure has three pairs of catalytically active subunits with distinct specificities (chymotrypsin, trypsin, and caspase), we repeated these experiments in the presence of a trypsin subunit inhibitor (PR671A). In effect, a 96% reduction in activity was recorded. This observation allowed us to proceed with screening at position P3 (Figure 2A).
Figure 2 Deconvolution of the library (at an average concentration of 3.4 × 10^−6 M) with the general formula ABZ–X4–X3–X2–Arg–ANB–NH2 against the 20S proteasome (1.46 × 10^−9 M). (A) Cleavage rates of individual sublibraries recorded for position X4; (B) Cleavage rates of individual sublibraries recorded for position X3; (C) Cleavage rates of individual compounds modified in position X2. […]
For enzymatic studies, the human 20S proteasome, 26S proteasome, and 20S immunoproteasome were purchased from Boston Biochem (Cambridge, MA, USA). […] The volume composition of each well of the 96-well plate was: 20 µL library, 160 µL assay buffer, and 20 µL 20S proteasome solution at a concentration of 1.07 × 10^−9 M. Absorbance or fluorescence measurements were performed on a FluoroStar OMEGA multimode microplate reader (BMG, Ortenberg, Germany). […]

[2] = test system: 20S proteasome in human urine; assay: Proteasome activity in human urine with substrate 1; type: biochemical; conditions: for proteasome activity (cleavage of substrate 1): 80 µL urine, substrate 1.34 × 10^−5 M, 320/450 nm, Mann–Whitney p < 0.0001
Procedure: All urine samples were purchased from St. Vincent de Paul Hospital in Gdynia, Poland (contract no. JN/777/R720/08.11.17). All methods and procedures were performed in accordance with this contract agreement. Participants were informed about the study and sample collection, and their written consent was collected. […] Therefore, the samples were considered unnamed. The samples of human urine were taken during mid-urination and kept for 48 h at −80 °C until required. All samples used for assay development were taken from healthy volunteers (n = 5), and oncological samples were obtained from patients diagnosed with bladder cancer (n = 8).
The urine samples were thawed at room temperature, gently vortexed, and briefly centrifuged (<20 s) to collect the sample at the bottom of the tube. A total of 80 μL urine was transferred to a 96-well microplate and mixed with assay buffer and substrate 1. Proteasome activity was assayed as described earlier. Briefly, 80 µL of urine from healthy volunteers, urine from patients diagnosed with bladder cancer, and bladder cancer urine supplemented by the inhibitor PR671A were mixed with 200 µL of the assayed buffer and 20 µL of the substrate at a concentration of 1.34 × 10^−5 M, and the fluorescence was quantified. An excitation wavelength equal to 320 nm and an emission wavelength of 450 nm were used.
The resulting data were analyzed using Graphpad Prism version 6.0 software (GraphPad Software Inc., La Jolla, CA, USA). All fluorescent measurements were performed in triplicate and represented by the mean ± standard deviation (SD). A two-tailed Mann–Whitney test was applied for the statistical analysis (p < 0.0001).

20S proteasome [3] = assay: Proteolytic cleavage pattern by RP-HPLC; type: biochemical, human; conditions: substrate 3.1 × 10^−6 M, 20S proteasome 1.07 × 10^−9 M, one hour
Procedure: For each sample of the diluted substrate (concentration; 3.1 × 10^−6 M), an appropriate amount of proteasome (1.07 × 10^−9 M) was added, and the solution was incubated for 5, 30, and 60 min. The proteolytic reaction was monitored by RP-HPLC.

[4] = molecular target: T1, human 20S proteasome, trypsin-like (β2) subunit (Homo sapiens, UniProt P49720+Q99436); assay: Kinetic parameters of substrate 1 with human 20S proteasome (allosteric fit); type: biochemical; conditions: for kcat/Km: calculated from the kcat and Km values; for Km / kcat: 20S proteasome 1.07 × 10^−9 M
T1 construct: purchased Boston Biochem (Cambridge, MA, USA)
Procedure: (§1) For enzymatic studies, the human 20S proteasome, 26S proteasome, and 20S immunoproteasome were purchased from Boston Biochem (Cambridge, MA, USA). The 20S proteasome concentration for library deconvolution was in the nanomolar range, and this proteasome entity was used for the main study. Deconvolution of the peptide libraries was performed using the iterative solution method. Dimethyl sulfoxide (DMSO) was used as a solvent for preparation of the stock solution (5 mg/mL) for each lyophilized sub-library. This stock solution was diluted ten times using an assay buffer (50 mM Tris/HCl buffer (pH 8.2)) for the 20S and 20Si proteasome, and for 26S, the buffer was supplemented with 40 mM KCl, 2 mM EDTA, 1 mM DTT, 100 µM ATP, and 50 µg/mL bovine serum albumin (BSA). The volume composition of each well of the 96-well plate was: 20 µL library, 160 µL assay buffer, and 20 µL 20S proteasome solution at a concentration of 1.07 × 10^−9 M. Absorbance or fluorescence measurements were performed on a FluoroStar OMEGA multimode microplate reader (BMG, Ortenberg, Germany). Absorbance increases were monitored at 410 nm. The excitation and emission wavelengths were 320 and 450 nm respectively, for the ABZ/ANB. Enzymatic hydrolysis of the peptide was performed in the assay buffer at 37 °C and continued over 60 min.
The procedures to determine the kinetic constants Km and kcat are described below. Increasing concentrations of substrate 1 ranged from 1 × 10^−6 to 2 × 10^−5 M. In parallel, a kinetic assay with the artificial activator SDS at 0.01% was also performed. The data were fitted to an allosteric plot using GraphPad prism v6.0 (GraphPad Software Inc., La Jolla, CA, USA). The specificity constants (kcat/ Km) were calculated from the kcat and Km values. Measurements were performed using a 20S proteasome concentration of 1.07 × 10^−9 M. Three to five measurements were performed for each compound dilution (the systematic error, defined as the standard deviation, never surpassed 20%). The initial hydrolysis rates were used as the amount of enzymatic activity for the tested compounds. All kinetic study details and kinetic parameters have been described elsewhere.

[5] = test system: 20S proteasome, 26S proteasome and immunoproteasome 20S; assay: Cleavage of substrate 1 by 20S, 26S and 20S immunoproteasome; type: biochemical, human; conditions: 20S vs 26S vs 20S immunoproteasome, equimolar concentrations; initial screening
Procedure: as §1

[6] = in the presence of artificial activator SDS 0.01%, pH 8.2, 37 °C

## ABZ–Dap(O2(Cbz))–Dap(GO1)–Dap(O2(Cbz))–Arg–ANB–NH2 [substrate 1]
20S proteasome [1]
  cleavage rate, position P2 (X2), individual compounds: significantly higher compared to the rates of the other tested systems
[2]; bladder cancer urine samples, n = 8
  fluorescence (in words): fluorescence increase that was observed in all samples
[2]; bladder cancer urine, n = 8, mean ± SD
  proteasome activity (cleavage of substrate 1): 48.4 ± 28.1
[2]; healthy urine samples, n = 5
  fluorescence (in words): insignificant background levels of fluorescence
[2]; healthy urine, n = 5, mean ± SD
  proteasome activity (cleavage of substrate 1): 0.1 ± 0.04
20S proteasome [3]
  cleavage products: two products with retention times corresponding to ABZ–Dap(O2(Cbz))–Dap(GO1)–Dap(O2(Cbz))–Arg–OH (2) (tR = 18.24) and ABZ–NH2 (tR = 7.89)
[4]; in the presence of artificial activator SDS 0.01%
  kcat/Km: 3.23e+07 M⁻¹ s⁻¹
[4]; [6]
  Km: 6.84 ± 0.12 µM
  kcat: 221 ± 18 s⁻¹
[4]; substrate alone, without SDS, 50 mM Tris/HCl pH 8.2, 37 °C
  kcat: 245 ± 21 s⁻¹
[4]; substrate alone, without SDS, 50 mM Tris/HCl pH 8.2, 37 °C, substrate 1 × 10^−6 to 2 × 10^−5 M, ABZ/ANB fluorescence 320/450 nm, three to five measurements
  Km: 3.22 ± 0.02 µM
[4]; substrate alone, without SDS
  kcat/Km: 7.61e+07 M⁻¹ s⁻¹
[4]; substrate alone, characteristic for allosteric enzymes
  type of cleavage kinetics: sigmoidal kinetics
[5]
  selectivity among proteasome entities: selectively proteolyzed by the 20S proteasome
